Here are results for 38 molecules from patent US8691804B2 (Evotec AG, priority 2008, dated 2014).

The target in this assay is T1, human H3 receptors (Homo sapiens, UniProt Q9Y5N1).
T1 construct: host or cells: CHO-K1
T1 sequence (Q9Y5N1 whole entry): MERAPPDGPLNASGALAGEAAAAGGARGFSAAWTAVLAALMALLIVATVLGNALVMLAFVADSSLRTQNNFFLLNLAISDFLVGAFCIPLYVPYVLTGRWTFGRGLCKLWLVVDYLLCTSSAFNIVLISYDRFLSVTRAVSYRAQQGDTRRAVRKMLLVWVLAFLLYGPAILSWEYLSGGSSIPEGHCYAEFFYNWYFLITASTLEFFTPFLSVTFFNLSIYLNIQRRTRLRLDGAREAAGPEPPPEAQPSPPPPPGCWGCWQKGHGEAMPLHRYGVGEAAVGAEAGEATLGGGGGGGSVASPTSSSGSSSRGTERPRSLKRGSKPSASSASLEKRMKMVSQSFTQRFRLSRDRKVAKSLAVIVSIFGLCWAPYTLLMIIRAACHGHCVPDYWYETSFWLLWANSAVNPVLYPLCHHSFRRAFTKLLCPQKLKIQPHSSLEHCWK
The experiment in a line: cAMP quantification assay for human H3 receptor testing. It is filed as cell-based. Conditions: CHO-K1 cells expressing human H3 receptors; inhibition of agonist-induced decrease of cAMP; 100 nM histamine, 10 μM forskolin; read-out: Potency range (IC50 values). A digest of the protocol:
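CHO-K1 cells expressing human H3 (10,000/well) were preincubated 30 min at 37 °C with compound in PBS containing 1 mM IBMX and 0.03% BSA. They were then challenged 30 min with agonist solution (100 nM histamine plus 10 μM forskolin). cAMP was quantified by enzyme-complementation luminescence, with 8 concentrations in triplicate at 1% DMSO.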
As usually defined, the IC50 is the point on the concentration scale where inhibition reaches its midpoint. As for `CNC(=O)c1ccc(OC2CN(C(=O)N3CCCN(C4CCCC4)CC3)C2)cn1` [Example 115, 5-({1-[(4-cyclopentyl-1,4-diazepan-1-yl)carbonyl]azetidin-3-yl}oxy)-N-methylpyridine-2-carboxamide], the IC50 is under 100 nM.
For `CNC(=O)c1ccc(OCC2CN(C(=O)N3CCCN(C4CCC4)CC3)C2)cn1` [Example 138, 5-({1-[(4-cyclobutyl-1,4-diazepan-1-yl)carbonyl]azetidin-3-yl}methoxy)-N-methylpyridine-2-carboxamide], the IC50 is under 100 nM.
Consider `O=C(N1CCCN(C2CCC2)CC1)N1CC(CO)C1` [Example 134, {1-[(4-cyclobutyl-1,4-diazepan-1-yl)carbonyl]azetidin-3-yl}methanol], for which the IC50 is under 100 nM.
Consider `CC(C)(CO)c1ccc(OC2CN(C(=O)N3CCCN(C4CCC4)CC3)C2)cn1` [Example 156, 2-[5-({1-[(4-cyclobutyl-1,4-diazepan-1-yl)carbonyl]azetidin-3-yl}oxy)pyridin-2-yl]-2-methylpropan-1-ol], for which the IC50 was under 100 nM.
Under `NC(=O)c1cc(OC2CN(C(=O)N3CCCN(C4CCC4)CC3)C2)ccn1` [Example 72, 4-({1-[(4-cyclobutyl-1,4-diazepan-1-yl)carbonyl]azetidin-3-yl}oxy)pyridine-2-carboxamide] stands under 100 nM.
In the case of `O=C1NCCc2cc(OCC3CN(C(=O)N4CCCN(C5CCC5)CC4)C3)ccc21` [Example 136, 6-({1-[(4-cyclobutyl-1,4-diazepan-1-yl)carbonyl]azetidin-3-yl}methoxy)-3,4-dihydroisoquinolin-1(2H)-one], the IC50 is under 100 nM.
Under `O=C(N1CCCN(C2CCC2)CC1)N1CC(Oc2ccccc2)C1` [Example 15, 1-cyclobutyl-4-[(3-phenoxyazetidin-1-yl)carbonyl]-1,4-diazepane] stands under 100 nM; under `O=C(N1CCCN(C2CCC2)CC1)N1CC(Oc2ccc(OC(F)F)cc2)C1` [Example 89, 1-cyclobutyl-4-({3-[4-(difluoromethoxy)phenoxy]azetidin-1-yl}carbonyl)-1,4-diazepane], under 100 nM; under `CC(C)c1cc(OC2CN(C(=O)N3CCCN(C4CCC4)CC3)C2)ccn1` [Example 55, 1-cyclobutyl-4-[(3-{[2-(1-methylethyl)pyridin-4-yl]oxy}azetidin-1-yl)carbonyl]-1,4-diazepane], under 100 nM.
Turning to `O=C(N1CCCN(C2CCC2)CC1)N1CC(Oc2cccc(Cl)c2)C1` [Example 32, 1-{[3-(3-chlorophenoxy)azetidin-1-yl]carbonyl}-4-cyclobutyl-1,4-diazepane], the IC50 is under 100 nM.
Take `N#Cc1cccc(OC2CN(C(=O)N3CCCN(C4CCC4)CC3)C2)c1` [Example 30, 3-({1-[(4-cyclobutyl-1,4-diazepan-1-yl)carbonyl]azetidin-3-yl}oxy)benzonitrile]: the IC50 is under 100 nM.
`COc1ccccc1OC1CN(C(=O)N2CCCN(C3CCC3)CC2)C1` [Example 92, 1-cyclobutyl-4-{[3-(2-methoxyphenoxy)azetidin-1-yl]carbonyl}-1,4-diazepane]: the IC50 was under 100 nM.
Turning to `N#Cc1ccc(OC2CN(C(=O)N3CCN(C4CCC4)CC3)C2)cc1` [Example 40, 4-({1-[(4-cyclobutylpiperazin-1-yl)carbonyl]azetidin-3-yl}oxy)benzonitrile], the IC50 was under 100 nM.
Under `O=C(CC1CC1)N1CCc2nc(OC3CN(C(=O)N4CCCN(C5CCC5)CC4)C3)ccc2C1` [Example 84, 2-({1-[(4-cyclobutyl-1,4-diazepan-1-yl)carbonyl]azetidin-3-yl}oxy)-6-(cyclopropylacetyl)-5,6,7,8-tetrahydro-1,6-naphthyridine] stands under 100 nM; under `O=C(N1CCCN(C2CCC2)CC1)N1CC(O)C1` [Example 1, 1-[(4-cyclobutyl-1,4-diazepan-1-yl)carbonyl]azetidin-3-ol], under 100 nM; under `COc1nccc(OC2CN(C(=O)N3CCCN(C4CCC4)CC3)C2)n1` [Example 52, 1-cyclobutyl-4-({3-[(2-methoxypyrimidin-4-yl)oxy]azetidin-1-yl}carbonyl)-1,4-diazepane], under 100 nM.
Regarding `CNC(=O)c1ccc(OC2CN(C(=O)N3CCCN(C4CCC4)CC3)C2)cn1` [Example 5, 5-({1-[(4-cyclobutyl-1,4-diazepan-1-yl)carbonyl]azetidin-3-yl}oxy)-N-methylpyridine-2-carboxamide], the IC50 was under 100 nM.
Consider `CNC(=O)c1ccc(OC2CN(C(=O)N3CCN(C4CCC4)CC3)C2)cn1` [Example 37, 5-({1-[(4-cyclobutylpiperazin-1-yl)carbonyl]azetidin-3-yl}oxy)-N-methylpyridine-2-carboxamide], for which the IC50 was under 100 nM.
Under `Cc1cc(OC2CN(C(=O)N3CCCN(C4CCC4)CC3)C2)ccn1` [Example 27, 1-cyclobutyl-4-({3-[(2-methylpyridin-4-yl)oxy]azetidin-1-yl}carbonyl)-1,4-diazepane] stands under 100 nM; under `CCN(CC)C(=O)c1ccc(OC2CN(C(=O)N3CCCN(C4CCC4)CC3)C2)cn1` [Example 7, 5-({1-[(4-cyclobutyl-1,4-diazepan-1-yl)carbonyl]azetidin-3-yl}oxy)-N,N-diethylpyridine-2-carboxamide], under 100 nM; under `Cc1ccc(C(=O)NC2CN(C(=O)N3CCCN(C4CCC4)CC3)C2)cn1` [Example 139, N-{1-[(4-cyclobutyl-1,4-diazepan-1-yl)carbonyl]azetidin-3-yl}-6-methylpyridine-3-carboxamide], under 100 nM.
For `N#Cc1ccc(O[C@H]2C[C@@H](C(=O)N3CCCN(C4CCC4)CC3)C2)cc1` [Example 103, 4-({cis-3-[(4-cyclobutyl-1,4-diazepan-1-yl)carbonyl]cyclobutyl}oxy)benzonitrile], the IC50 was under 100 nM.
With `O=C1NCCc2cc(OC3CN(C(=O)N4CCCN(C5CCC5)CC4)C3)ccc21` [Example 116, 6-({1-[(4-cyclobutyl-1,4-diazepan-1-yl)carbonyl]azetidin-3-yl}oxy)-3,4-dihydroisoquinolin-1(2H)-one], the IC50 is under 100 nM.
Regarding `Cc1ccc2cc(OC3CN(C(=O)N4CCCN(C5CCC5)CC4)C3)ccc2n1` [Example 93, 6-({1-[(4-cyclobutyl-1,4-diazepan-1-yl)carbonyl]azetidin-3-yl}oxy)-2-methylquinoline], the IC50 is under 100 nM.
Under `O=C(N1CCCN(C2CCC2)CC1)N1CC(Oc2ncccc2Cl)C1` [Example 76] stands under 100 nM.
Under `CNC(=O)c1cc(OC2CN(C(=O)N3CCCN(C4CCC4)CC3)C2)ccn1` [Example 147, 4-({1-[(4-cyclobutyl-1,4-diazepan-1-yl)carbonyl]azetidin-3-yl}oxy)-N-methylpyridine-2-carboxamide] stands under 100 nM.
With `CC(=O)c1ccc(OC2CN(C(=O)N3CCCN(C4CCC4)CC3)C2)cn1` [Example 119, 1-[5-({1-[(4-cyclobutyl-1,4-diazepan-1-yl)carbonyl]azetidin-3-yl}oxy)pyridin-2-yl]ethanone], the IC50 is under 100 nM.
Under `O=C(N1CCCN(C2CCC2)CC1)N1CC(Oc2cnccc2Cl)C1` [Example 48, 1-({3-[(4-chloropyridin-3-yl)oxy]azetidin-1-yl}carbonyl)-4-cyclobutyl-1,4-diazepane] stands under 100 nM; under `O=C(N1CCCN(C2CCC2)CC1)N1CC(Oc2ccncc2)C1` [Example 81, 1-cyclobutyl-4-{[3-(pyridin-4-yloxy)azetidin-1-yl]carbonyl}-1,4-diazepane], under 100 nM; under `O=C(N1CCCN(C2CCC2)CC1)N1CC(Oc2ccc(F)cc2)C1` [Example 13, 1-cyclobutyl-4-{[3-(4-fluorophenoxy)azetidin-1-yl]carbonyl}-1,4-diazepane], under 100 nM.
Consider `COc1cnc(OC2CN(C(=O)N3CCCN(C4CCC4)CC3)C2)nc1` [Example 120, 1-cyclobutyl-4-({3-[(5-methoxypyrimidin-2-yl)oxy]azetidin-1-yl}carbonyl)-1,4-diazepane], for which the IC50 is under 100 nM.
Turning to `Cc1cc(Cl)ccc1OC1CN(C(=O)N2CCCN(C3CCC3)CC2)C1` [Example 25, 1-{[3-(4-chloro-2-methylphenoxy)azetidin-1-yl]carbonyl}-4-cyclobutyl-1,4-diazepane], the IC50 was under 100 nM.
For the molecule `Cc1ccc(C(=O)N(C)C2CN(C(=O)N3CCCN(C4CCC4)CC3)C2)cn1` [Example 143, N-{1-[(4-cyclobutyl-1,4-diazepan-1-yl)carbonyl]azetidin-3-yl}-N,6-dimethylpyridine-3-carboxamide], the IC50 was under 100 nM.
Under `Cn1ccc2cc(OC3CN(C(=O)N4CCCN(C5CCC5)CC4)C3)ccc21` [Example 155, 5-({1-[(4-cyclobutyl-1,4-diazepan-1-yl)carbonyl]azetidin-3-yl}oxy)-1-methyl-1H-indole] stands under 100 nM.
For the molecule `O=C(N1CCCN(C2CCC2)CC1)N1CC(COc2ccc(Cl)cc2)C1` [Example 135, 1-({3-[(4-chlorophenoxy)methyl]azetidin-1-yl}carbonyl)-4-cyclobutyl-1,4-diazepane], the IC50 was under 100 nM.
`CN1CCc2cc(OCC3CN(C(=O)N4CCCN(C5CCC5)CC4)C3)ccc2C1=O` [Example 137, 6-({1-[(4-cyclobutyl-1,4-diazepan-1-yl)carbonyl]azetidin-3-yl}methoxy)-2-methyl-3,4-dihydroisoquinolin-1(2H)-one]: the IC50 is under 100 nM.
Under `O=C(N1CCCN(C2CCC2)CC1)N1CC(Oc2ccc(I)cc2)C1` [Example 44, 1-cyclobutyl-4-{[3-(4-iodophenoxy)azetidin-1-yl]carbonyl}-1,4-diazepane] stands under 100 nM.
Take `O=C(Nc1ccc(Cl)cc1)C1CN(C(=O)N2CCCN(C3CCC3)CC2)C1` [Example 123, N-(4-chlorophenyl)-1-[(4-cyclobutyl-1,4-diazepan-1-yl)carbonyl]azetidine-3-carboxamide]: the IC50 is under 100 nM.
